Assays:
Format in all cases: cell-based
HL60 cells = experiment: Annexin-V assay for apoptosis in microfluidic device; settings: HL60 cells treated for four hours; FIG. 12, untreated control FIG. 13
HL-60 cells = experiment: TUNEL assay for apoptosis in microfluidic device; settings: HL-60 cells treated for 6 hours; FIG. 8, untreated control FIG. 9
U937 cells [1] = experiment: Annexin-V assay for apoptosis in microfluidic device; settings: U937 cells treated to induce apoptosis; FIG. 7, untreated control FIG. 6
Description: In an Annexin-V assay, change in the outer membrane of apoptotic cells is detected. A membrane component, phosphatidylserine (PS) is translocated to the outer layer. Annexin-V binds to PS and is conjugated to biotin to allow secondary reactions to fluorescently labeled Streptavidin for detection. U937 cells were treated with Campthotecin to induce apoptosis. The cells were harvested and washed in phosphate buffered saline (PBS). Cells were incubated with Annexin-V-Biotin (Boehringer Mannheim) in HEPES buffer, and then incubated with 5 μg streptavidin-Cy5 (Amersham) and […] of Calcein-AM dye in HEPES buffer. The HEPES buffer solution contained 10 mM HEPES, pH 7.4; 140 mM NaCl; and a 5 mM CaCl2. The cells were washed and resuspended in HEPES buffer with 8.5% sucrose and loaded in a microfluidic device for analysis. Fluorescence was detected using excitation at 488 nm and 635 nm, and emission was read at 525 nm and 682 nm.

U937 cells [2] = experiment: TUNEL assay for apoptosis in microfluidic device; settings: U937 cells treated to induce apoptosis; FIG. 5, untreated control FIG. 4
Description: A TUNEL assay (TdT (Terminal deoxynucleotidyl transferase)-mediated dUTP Nick End Labeling) was used to measure cellular apoptosis in accordance with the above-described methods and systems. In a TUNEL Assay, damaged DNA is labeled with fluorescinated nucleotides. Terminal deoxynucleotidyl transferase (TdT) binds to exposed 3′ ends of DNA fragments generated in response to apoptotic signals and catalyzes the addition of fluorescein-labeled deoxynucleotides. U937 cells were treated with Campthotecin to induce apoptosis. The cells were then harvested and fixed with 4% formaldehyde and stored in 80% ethanol at +4° C. until labeling was performed.
The cells were rehydrated in TBS buffer. They were then treated with 20 μg/ml of proteinase K for 5 minutes and resuspended in equilibration buffer. The cells were incubated in a working TdT labeling reaction mixture from Oncogene Research Products containing TdtT enzyme and FragEL TdT labeling reaction mix. […]
After washing the cells in TBS, they were resuspended in Hanks' Balanced Salt Solution with 10% OPTIPREP at 5×10^6/ml and loaded in a microfluidic device having the channel geometry shown in FIG. 1A, for analysis. Fluorescence was detected using 488 nm excitation, while emission was read at 525 nm and 680 nm.

SMILES: CC[C@@]1(O)C(=O)OCc2c1cc1n(c2=O)Cc2cc3ccccc3nc2-1 [Campthotecin]
- apoptotic cells (Annexin-V-Cy5 labeling vs Calcein live cell count) (HL60 cells): almost all cells are apoptotic
- apoptotic cells labeled at DNA damage points vs total cell count (HL-60 cells): almost all cells had sustained apoptotic DNA damage
- apoptotic cells (Annexin-V-Cy5 peaks vs Calcein live cell count) (U937 cells [1]): much greater number of peaks representing apoptotic cells
- apoptotic cells (fluorescein end labeled nucleic acid peaks vs SYTO-62 cell peaks) (U937 cells [2]): corresponding peaks are seen on both the lower and upper lines, indicating the presence of apoptotic cells
